Laboratory results taken from patent US20140256663A1, “Amphotericin Analogous Compounds and Pharmaceutical Compositions Containing Them” (CENTRO DE INVESTIGACION Y DE ESTUDIOS AVANZADOS DEL …, priority 2010, published 2014).
Entries after “also recorded” stand apart in the source; their conditions may differ.

How the values were obtained:
Candida kruzei = assay: Antifungal activity in vitro by flow cytometry, Candida kruzei; type: cell-based; settings: 24 h at 37° C., read-out: CF50 Candida kruzei
Protocol: (§1) The antifungal activity of the polyene macrolide derivate of the present invention was determined by flow cytometry method earlier described (Pinto et al., J. Medical Microbiology, 2009; 58, 1454-1462; Pina-Vaz and Rodriguez, Methods Mol. Biol. 2010; 638:281-289). For the test two strains of Candida albicans (ATCC 10231 and 752) and Candida kruzei were used. A cellular suspension of 1×10^6 UFC/mL was used, which has sown in 96-well plates. […] As controls were used: untreated yeasts (control of living cells), yeasts exposed to UV radiation (arrest, inhibition of proliferation), and yeasts exposed at temperature of 100° C. (dead yeasts). Cells were collected by centrifugation at 10,000×g for 10 min, they were washed once in phosphate buffer. […] of propidium iodide 0.1 mg/mL were added to the cell suspension. It was incubated during 30 minutes at room temperature and protected from light. Finally, the samples were analyzed by flow cytometry (Becton-Dickinson Facsc Calibur, laser argon 480 nm). The intrinsic parameters and fluorescence in the FL2 channel (yellow/orange fluorescence) for FUN and channel FL3 (red fluorescence, filter 630 nm) for propidium iodide were acquired and registered on a logarithmic scale for a minimum of 7500 events per sample. For data analysis, the quadrants were adjusted in a plot of data lines of fluorescence intensity of samples. […] These quadrants were used to quantify the percentile of cells showing altered fluorescence compared to drug-free controls.

[1] = test system: Candida albicans ATCC 752; assay: Antifungal activity in vitro by flow cytometry, Candida albicans ATCC 752; type: cell-based; settings: ATCC752, 24 h at 37° C., read-out: CF50 Candida albicans ATCC 752
Protocol: as §1

[2] = test system: Saccharomyces cerevisae FY833(SC) cells; assay: Viability of Saccharomyces cerevisae FY833 (SC) cells at various concentrations; type: cell-based; settings: FIG. 1, various concentrations; listed as amide 1
Protocol: All derivatives were tested for antibiotic activity in yeast cultures of S. cerevisiae.

[3] = Unit channel studies in chicken egg lecithin bilayers with cholesterol; settings: for Opening probability, channel type I / Opening probability, channel type II / Opening probability, channel type III / Opening probability, channel type IV / Opening probability, channel type V / Opening probability, channel type VI: 200 μM compound, 30 mol % cholesterol, 27° C.
Protocol: The activity is determined by the presence of the different channels formed by polyenes in the lipid bilayer (Cotero, et al., supra; Venegas, et al., supra). […] These values were determined by the technique of unit channel delineated above.
Unit channel studies were performed according to procedures described earlier (Cotero, et al., supra, Venegas, et al., supra). Required liposomal suspensions were prepared using lecithin with cholesterol or ergosterol. These suspensions were placed in an ultrasonic bath for 15 minutes to produce unilamellar vesicles. Subsequently, the suspension was placed in a 100 μl eppendorf and a lipid bilayer was formed on the tip of a micro-electrode. The unit channels of amphotericin and of the invented compounds were incorporated to this bilayer. The unit channel current of the various compounds was recorded with an electrometer, and then these records were analyzed by determining the activity of the compounds and the characteristics of the channels formed.
The activity is determined by the presence of the various channels formed by polyenes in the lipid bilayer (Cotero, et al., supra, Venegas, et al., supra). […] This conductance is the effect of all the channels present and was determined by the unit channel technique earlier described.

[4] = test system: human renal cells 293Q (ATCC CLR-1573); assay: MTT cytotoxicity on human renal cells 293Q; settings: human renal cells 293Q, 24 h
Protocol: For cytotoxicity studies human kidney cells (ATCC No. CRL-1573) were used. The cells were cultured with Minimum Essential Medium (MEM) (GIBCO BRL), supplemented with 10% fetal bovine serum (FBS) (GIBCO BRL), 2 mM 1-glutamine (GIBCO BRL), 1.5 gL Na2HCO3 (Sigma Chemical Co), 0.1 mM nonessential amino acids (Sigma Chemical Co), and 1 mM sodium pyruvate (In vitro, S.A.). The technique of bromide of 3(4,5-dimethylthiazol-2-yl)-2,5-diphenyl tetrazolium (MTT) (Sigma Chemical Co) was applied; a technique which is based on the conversion of dye to an insoluble precipitate called formazan. This test is used as an indicator of mitochondrial function in living cells that measures the metabolic capacity in cells and serves as an indicator of cytotoxicity. […] (Mosman […], Immunol Methods, 65: 55-63). The cytoxicity test consisted of planting 10,000 cells per well in 96-well plates (Corning Incorporated Costar) in MEM and incubate them (Nuaire us autoflow CO2 water-jacketed incubator) during 24 h at 37° C. and 5% CO2. […] After incubation, cells were treated and incubated anew for 24 h. After this time the medium was aspirated carefully and replaced with 200 μL of fresh medium, and 50 μL of MTT was added for a total volume of 250 μl. They were then incubated for 4 hours in the above conditions. After that time the medium with MTT was carefully removed and 200 μL of DMSO and 25 μL of Sorensen buffer (0.1 M glycine+0.1 M NaCl at pH 10.5) were added to each well. The plate was then mixed until the formazan crystals dissolved, and it was finally read in a plate reader (Microplate Limaning System Ultramark, Biorad) at a wavelength of 550 nm.
For the tests, we used human renal ephythelial cells (293Q) (ATCC Catalog No. CRL-1573). The cells were cultured with Minimum Essential Medium (MEM) (GIBCO BRL) supplemented with 10% fetal bovine serum (FBS) (GIBCO BRL), 2 mM L-glutamine (GIBCO BRL), 1.5 g/L Na2HCO3 (Sigma Chemical Co), 0.1 mM nonessential amino acids (Sigma Chemical Co), and 1 mM sodium pyruvate (In vitro, S.A.). For cytoxicity tests, we applied the technique of bromide 3(4,5-dimethylthiazol-2-yl)-2,5-diphenyl tetrazolium (MTT) (Sigma Chemical Co), which is based on the conversion of the dye to an insoluble precipitate called formazan. This test is used as an indicator of mitochondrial function in living cells which measures the metabolic capacity in cells and serves as an indicator of cytotoxicity. (Wang, H. Z., Chang, C. H., Lin, C. P., Tsai, M. C). Using MTT viability assay to test the cytotoxicity of antibiotics and steroid to cultured porcine corneal endothelial cells. J. Ocul. Pharmacol. Ther. 1996; 12: 35-43). For the essay 10,000 cells were seeded per well in 96-well plates (Corning Incorporated Costar) in the medium already indicated and incubated for 24 h at 37° C. and 5% CO2. […] After incubation, cells were treated and incubated again for 24 h. The medium was carefully aspirated and replaced with 200 μl fresh medium, adding 50 μl MTT solution for a total volume of 250 μl. They were then incubated for 4 hours in the above conditions. The medium was carefully removed with MTT and 200 μl DMSO and 25 μl Sorense buffer (0.1 M glycine+0.1 M NaCl at pH 10.5) was added to each well. Then the plate was mixed until the formazan crystals dissolved; it was finally read in a reader plate (Microplate Limaning System Ultramark, Biorad) at a wavelength of 550 nm.

[5] = test system: Candida albicans ATCC 10231; assay: Antifungal activity in vitro by flow cytometry, Candida albicans ATCC 10231; type: cell-based; settings: ATCC10231, 24 h at 37° C., read-out: CF50 Candida albicans ATCC 10231
Protocol: as §1

human erythrocytes = assay: Hemolytic assay on human erythrocytes; type: cell-based; settings: 1 hour
Protocol: The hemotoxicity of the polyene macrolide derivative of the present invention was determined by measuring the toxicity to human erythrocytes (values HE50) using a method established by Cybulska, et al. (Cybulska, B., Borowski, E. and Gary-Bobo, M. Relationship between ionophoric and hemolytic activities of perimycin A and vacidin A, two polyene macrolide antifungal antibiotics. Biochem Pharmacol. 1989; 38(11): 1755-1762). For determining the haematoxicity 2 mL blood were obtained and placed in a tube with EDTA. The number of erythrocytes was counted in a Neubauer chamber, and 1×10^7 cells/mL were placed in test tubes. The erythrocytes were resuspended in 450 μL of KCl 150 mM+Tris 3 mM buffer. The erythrocytes were treated with concentrations of 0.01, 0.1, 1, 10 y 100 μM and incubated in a water bath for 1 hour. They were then centrifuged at 1500 rpm for 15 seconds; 150 μL were taken from the supernatant and placed in 96-well plates; the optical density of each group was measured using a plate reader at a wavelength of 550 nm. We included one tube with the drug solvent (DMSO 1%) as internal control. We also included one tube only with erythrocytes and 500 μl of buffer KCl 150 mM+Tris 3 mM, which we consider as a negative control group and a tube with 500 μl of red cells and 35 mM NaCl (positive control).

Row | Structure (SMILES) | IC50 (Candida kruzei) [µM] | IC50 [1] [µM] | inhibitory capacity / potency on SC cells compared to AmB [2] | Opening probability, channel type I [3] [%] | Opening probability, channel type II [3] [%] | Opening probability, channel type III [3] [%] | Opening probability, channel type IV [3] [%] | Opening probability, channel type V [3] [%] | Opening probability, channel type VI [3] | activity of transmembranal channels in the cholesterol membrane ([3]; in words, compared to AmB) | DT50 CitE50 [4] [µM] | IC50 [5] [µM] | HE50 (Hemolysis 50) (human erythrocytes) [µM]
1 | CC1OC(O[C@H]2/C=C/C=C/C=C/C=C/C=C/C=C/C=C/C(C)[C@@H](O)C(C)C(C)OC(=O)C[C@H](O)C[C@H](O)CC[C@@H](O)[C@H](O)C[C@H](O)C[C@]3(O)CC(O)[C@@H](C(=O)NCc4ccccc4)C(C2)O3)C(O)C(N)C1O (stereo partly drawn) [A-1, N-benzylamide of AmB] | > 100 | > 100 | the most similar; also recorded: the highest power of the derivatives | 2 | 1 | <1 | <1 | <1 | <1% | low activity of transmembranal channels | 100 | > 100 | 52
2 | CC1OC(O[C@H]2/C=C/C=C/C=C/C=C/C=C/C=C/C=C/C(C)[C@@H](O)C(C)C(C)OC(=O)C[C@H](O)C[C@H](O)CC[C@@H](O)[C@H](O)C[C@H](O)C[C@]3(O)CC(O)[C@@H](C(=O)NC4CCCCC4)C(C2)O3)C(O)C(N)C1O (stereo partly drawn) [A-2, N-cycloheximide of AmB] | > 100 | > 100 |  | 5 | <1 | <1 | <1 | <1 | <1% |  | 120 | > 50 | 45
3 | CC(NC(=O)[C@@H]1C(O)C[C@@]2(O)C[C@@H](O)C[C@@H](O)[C@H](O)CC[C@@H](O)C[C@@H](O)CC(=O)OC(C)C(C)[C@H](O)C(C)/C=C/C=C/C=C/C=C/C=C/C=C/C=C/[C@H](OC3OC(C)C(O)C(N)C3O)CC1O2)c1ccccc1 (stereo partly drawn) [A-4, N—(S)-α-phenylethylamide of AmB] | > 100 | > 100 |  | 7 | 3 | 1 | <1 | <1 | <1% |  | 80 | > 50 | 46
4 | CC1OC(O[C@H]2/C=C/C=C/C=C/C=C/C=C/C=C/C=C/C(C)[C@@H](O)C(C)C(C)OC(=O)C[C@H](O)C[C@H](O)CC[C@@H](O)[C@H](O)C[C@H](O)C[C@]3(O)CC(O)[C@@H](C(=O)N[C@H](C)c4ccccc4)C(C2)O3)C(O)C(N)C1O (stereo partly drawn) [A-5, N—(R)-α-phenylethylamide of AmB] | > 100 | > 100 |  | 10 | 2 | <1 | <1 | <1 | <1% |  | 100 | > 50 | 42
5 | COC(=O)C(Cc1c[nH]c2ccccc12)NC(=O)[C@@H]1C(O)C[C@@]2(O)C[C@@H](O)C[C@@H](O)[C@H](O)CC[C@@H](O)C[C@@H](O)CC(=O)OC(C)C(C)[C@H](O)C(C)/C=C/C=C/C=C/C=C/C=C/C=C/C=C/[C@H](OC3OC(C)C(O)C(N)C3O)CC1O2 (stereo partly drawn) [A-6, N-(L)-tryptophanamide of AmB] | > 100 | > 100 |  | 23 | 2 | <1 | <1 | <1 | N.O. |  | 120 | > 50 | 58
6 | CC1/C=C/C=C/C=C/C=C/C=C/C=C/C=C/[C@H](OC2O[C@H](O)[C@@H](O)[C@H](N)[C@@H]2O)C[C@@H]2O[C@](O)(C[C@@H](O)C[C@@H](O)[C@H](O)CC[C@@H](O)C[C@@H](O)CC(=O)O[C@@H](C)[C@H](C)[C@@H]1O)C[C@H](O)[C@H]2C(=O)NCCc1c[nH]cn1 (stereo partly drawn) [A-8, N-histaminamide of AmB] | > 100 | > 100 |  |  |  |  |  |  |  |  |  | > 50 | 
